Results taken from patent publication US20250145715A1, “B7-H3 TARGETING FUSION PROTEINS AND METHODS OF USE THEREOF” (GT Biopharma, Inc., priority 2021, published 2025).

How the values were obtained:
[1] = test system: C4-2 prostate cancer cells; experiment: NK cell CD107a / IFNγ flow cytometry against C4-2; format: cell-based, human; conditions: normal donor and prostate cancer patient NK cells, vs controls
Text: FIG. 15A is a graph showing pooled analysis of proportion of NK cells from healthy donors or prostate cancer patients expressing CD107a+ (top) or IFNγ (bottom) against C4-2 targets (N=9 for healthy donors, N=3 for patients). FIG. 15B is a graph showing pooled analysis of proportion of NK cells from healthy donors or prostate cancer patients expressing CD107a+ (top) or IFNγ (bottom) against DU145 targets (N=9 for healthy donors, N=3 for patients). FIG. 15C is a graph showing pooled analysis of proportion of NK cells from healthy donors or prostate cancer patients expressing CD107a+ (top) or IFNγ (bottom) against LNCaP targets (N=9 for healthy donors, N=3 for patients). FIG. 15D is a graph showing pooled analysis of proportion of NK cells from healthy donors or prostate cancer patients expressing CD107a+ (top) or IFNγ (bottom) against PC3 targets (N=9 for healthy donors, N=3 for patients). * p<0.05, ** p<0.01, *** p<0.001, and **** p<0.0001.
FIG. 23A is a graph illustrating percent CD107a+ NK cells in PBMCNK alone in the presence of 0.3 nM TriKE. […]
ADCC was measured in a flow cytometry assay by evaluating degranulation via CD107a (lysosomal-associated membrane protein LAMP-1) and intracellular IFNγ production. […] Samples were washed and evaluated in an LSRII flow cytometer (BD Biosciences, San Jose, CA, USA). […]

[2] = test system: prostate cancer cells; experiment: NK cell function against prostate cancer cells (flow cytometry); format: cell-based, human
Method: FIG. 13A is a graph showing percent of NK cells expressing IFNγ against prostate cancer cell targets. FIG. 13B is a graph illustrating the proportion of NK cells undergoing 3 or more rounds of division.
ADCC was measured in a flow cytometry assay by evaluating degranulation via CD107a (lysosomal-associated membrane protein LAMP-1) and intracellular IFNγ production. Upon thawing, normal donor and patient-derived PBMCs or ascites cells were rested overnight (37° C., 5% CO2) in RPMI 1640 media supplemented with 10% fetal calf serum (RPMI-10). The next morning, they were suspended with tumor-target cells or media after washing twice with RPMI-10. Cells were then incubated with TriKEs or controls for 10 min at 37° C. Fluorescein isothiocyate (FITC)-conjugated anti-human CD107a monoclonal antibody (BD Biosciences, San Jose, CA, USA) was then added. Following an hour 37° C. incubation, GolgiStop (1:1500, BD Biosciences) and GolgiPlug (1:1000, BD Biosciences) were added for 3 h. After washing with phosphate buffered saline, the cells were stained with PE/Cy 7-conjugated anti-CD56 mAb, APC/Cy 7-conjugated anti-CD16 mAb, and PE-CF594-conjugated anti-CD3 mAb (BioLegend, San Diego, CA, USA). Cells were incubated for 15 min at 4° C., washed, and fixed with 2% paraformaldehyde. Cells were then permeabilized using an intracellular perm buffer (BioLegend) to evaluate production of IFNγ through detection via aBV650 conjugated anti-human IFNγ antibody (BioLegend). Samples were washed and evaluated in an LSRII flow cytometer (BD Biosciences, San Jose, CA, USA).
As illustrated in FIGS. 12A-12D, 14A-14L and 15A-15D cam1615B7-H3 TriKE targets prostate cancer. The ability of the cam1615B7-H3 TriKE to improve NK cell activity against prostate cancer was tested. All of the prostate cancer cell lines tested expressed B7-H3. For these tests, normal donor PBMCs and PBMCs obtained from metastatic prostate cancer patients were used.

cam1615B7-H3: second-generation TriKE: humanized camelid anti-CD16 VHH, human wild-type IL-15, anti-B7-H3 mAb 376.96 scFv; SEQ ID NO:1
NK cell IFNγ production against C4-2 [1]: enhanced
NK cell degranulation (CD107a) against C4-2 [1]: enhanced
NK function (IFNγ) against prostate cancer cell targets vs IL-15 alone ([2]; compared to IL-15 alone): more potent at inducing NK function than IL-15 alone
B7-H3 specificity of the signal ([2]; with prostate cancer cells): specific to B7-H3
TriKE-induced signal vs natural cytotoxicity signal ([2]; with prostate cancer cells): stronger than that induced by a strong natural cytotoxicity signal
